Key:
[1] = tested on: MDA-MB-231/breast cancer cell line; test: Cell cycle analysis, propidium iodide flow cytometry; type: cell-based, human; conditions: 13 µM, 48 h
Description: Using flow cytometry, apoptosis rate analysis was proceeded through staining the cell surface-translocating phosphatidylserine with Annexin-V fluorescent conjugate, the calcium-dependent phospholipid binding protein [32]. However, cell cycle analysis was achieved using propidium iodine fluorescent dye to stoichiometrically stain cell DNA contents allowing quantitation and identification of all cell phase rates; G0-G1, S, G2/M, and pre-G1 [33, 34]. […] For identifying the mode of cell death promoted by 8b within MDA-MB-231/breast cancer cells, apoptosis rate analysis was performed following 48 h exposure time. […] Moreover, the average proportion of Annexin-V stained positive cells (total apoptotic cells) elevated from 1.72% within untreated cells to 18.93% in treated ones (p < 0.001). […] The above provided findings are supported by the previous cell cycle analysis confirming the potentiality of 8b as promising anticancer agent.
Apoptotic assay and cell cycle analysis were proceeded according to previous literatures. […] Following incubation, MDA-MB-231 cells were trypsinized, harvested, and fixed according to information cited within Annexin® V-FITC Detection Kit (Cat.#: K101-25, BioVision^TM, Milpitas, CA, USA), for quantifying cell’s DNA contents being treated with 8b relative to control sample using propidium iodide stain (Cat.#: ab139418; Abcam^TM, Cambridge, MA, USA). […]

[2] = tested on: Bax/Bcl-2 gene expression ratio; test: RT-PCR Bax/Bcl-2 gene expression ratio; type: cell-based, human; conditions: 13 μM, 48 h, MDA-MB-231; control 1
Description: Dissection of the compound’s proapoptotic activity was proceeded through gene expression analysis for key genes, controlling apoptosis pathway, as well as protein level determination. Following 8b treatment for 48 h, alterations within MDA-MB-231/breast cancer cell expression of Bcl-2, Bax, caspase-3, -8, and -9 genes, as well as cytochrome c and class-III β-tubulin proteins levels were determined using real-time polymerase chain reaction (RT-PCR) or ELISA technique, respectively. Typically, Bcl-2, Bax, caspases, and cytochrome c proteins contributes within the regulation of apoptotic signaling. Acting as apoptotic activator (Bax) or inhibitor (Bcl-2), the Bcl-2 family proteins play their significant role in apoptosis. The caspases family are cysteine proteases being classified as either executioners; caspase-3, -6, or -7 or initiators; caspase-8 and -9 [36]. […]
Quantitative Real-time PCR was operated on Rotor-Gene Q® PCR system as a reader (Cat.#: 204774; Qiagen^TM, Milan, Italy) via GenElute® RNA extraction/SIGMA PCR kit (Cat.#: REI10; Qiagen^TM, Milan, Italy)^86. […] RNA purity was assessed via Nanodrop® 2000/2000c UV-Vis spectrophotometer (Thermo-Scientific^TM, Bilbao, Spain). […] Obtained results were expressed within Cycle threshold (Ct) values, while relative quantitation of each measured gene was assessed based on ΔΔCt calculations as represented in Table 5 [79].

[3] = tested on: MDA-MB-231/breast cancer cells; test: SRB cytotoxicity assay; type: cell-based; conditions: Homo sapiens; MDA-MB-231, 72 h exposure
Description: MDA-MB-231: Breast Cancer cell line was obtained from Nawah^TM Scientific Inc., (Cairo, Egypt). Cells were maintained within DMEM provided by 100 units/mL of penicillin, […], and 10% of heat-inactivated FBS within 5% (v/v) CO2 humidified atmosphere (37 °C). The validity of cell line was evaluated adopting the previously reported approach. Briefly, an accurate volume (100 μL) of cell line suspension (5 × 10^3 cells) was placed in 96-well plates and incubated for 24 h within complete media. Cell line suspensions were then treated with another 100 μL media spiked with various drug concentrations (0.01, 0.1, 1, 10, 100 μM/mL) and kept for 72 h. Then the media were replaced with 150 μL of 10% trichloroacetic acid (TCA) for fixing cells through subsequent 1 h incubation at 4 °C [74]. Following incubation, TCA was removed, and cells were washed via distilled water 5 times. Aliquots of 70 μL SRB solution (0.4% w/v; Cat.# S1402; Sigma-Aldrich^TM, Taufkirchen, Germany) were added and cell were then incubated in dark for 10 min at 25 °C. Plates were subjected to triplicate washing via 1% acetic acid and then permitted to be air-dried overnight. Protein-bound SRB stain was extracted by addition of tris base (150 μL, 10 mM) and the absorbance was measured at 540 nm using FLUOstar-Omega® microplate reader (BMG-Labtech^TM GmbH, Ortenberg, Germany).

[4] = tested on: MDA-MB-231/breast cancer cells; test: Morphological assessment; type: cell-based, human; conditions: 0.1-100 µM, 48 h, phase-contrast microscope
Description: The impact of 8b on cancerous cellular morphology was evaluated over different concentrations following 48 h exposure time. In MDA-MB-231/breast cancer cells, normal membrane integrity and control group nucleus morphology was depicted for cells within vehicle negative control group (Figure 4A). […] At 100 µM concentration, the cell number became highly declined and great loss of cellular polyhedral shape was observed as cells acquired the tentacled spindle-shaped morphology (Figure 4E). These morphological changes were more drastic with 8b as compared to 5-FU for similar concentrations (100 µM) (Figure 4F).
The impact of this tested final compounds on the morphology of treated MDA-MB-231/breast cancer cell line was investigated, through planting cells within 6-well plates and subsequently incubated with 0.1, 1, 10, 100 µM of 8b […]. Variations within the cells’ morphology were identified via Olympus®-CKX53 Inverted Metallurgical light microscope (Olympus^TM, Center Valley, PA, USA), snapped by Olympus® Digital Camera, and analyzed by OLYMPUS® Stream image analysis software.

A549/lung adenocarcinoma = test: Morphological assessment; type: cell-based, human; conditions: 0.1-100 µM (5-FU 100 µM), 48 h, phase-contrast microscope

With CCCc1ccc(-c2nn(-c3ccccc3)cc2C=NNC(=O)c2cc3ccccc3[nH]2)cc1 [Compound 8b, N′-((1-phenyl-3-(4-propylphenyl)-1H-pyrazol-4-yl)methylene)-1H-indole-2-carbohydrazide] the “cell population at pre-G1 stage” value [1] was 1.72%, the “cell population at G2/M stage” value ([1]; untreated 6.15%) was 25.32% and the Bax/Bcl expression ratio [2] was 21.88. For the same compound, the IC50 [3] was 12.4 ± 0.5 µM, the cell morphology alterations [4] was “significant cell morphology alteration, intercellular space dilatation, and cellular shrinkage” and the cell morphology alterations (A549/lung adenocarcinoma) was “Comparable cell morphology changes”.

From paper PMC7912796, “Design, Synthesis, Anticancer Activity, and Solid Lipid Nanoparticle Formulation of Indole- and Benzimidazole-Based Compounds as Pro-Apoptotic Agents Targeting Bcl-2 Protein” (Pharmaceuticals, 2021)
